{
  "source": "patent US11464763B2",
  "about": "“Parasiticidal compositions comprising an isoxazoline active agent, methods and uses thereof” (BOEHRINGER INGELHEIM ANIMAL HEALTH USA INC., priority 2011, dated 2022)",
  "key": {"Ctenocephalides felis [1]": {"tested_on": "Ctenocephalides felis", "experiment": "Spot-on efficacy at 1 mg/kg against Ctenocephalides felis fleas in cats (Example 7)", "assay_type": "in vivo", "conditions": "Group 6: 1% in Transcutol+10% ethanol+5% polyvinylpyrrolidone+5% TWEEN 80, 1 mg/kg", "experimental": "The efficacy of several spot-on formulations comprising Cmpd. A dosed at 1 mg/kg body weight in different carrier vehicles against fleas in cats was studied. Five cats each were allocated to 6 Treatment Groups. The […] per study group were subjected to weekly infestations followed by 24 h flea counts for 5 to 8 weeks, according to the following Group allocations: Group 1—untreated control; Group 2-1.0% (w/v) Cmpd. A in DMI; Group 3-1.0% (w/v) Cmpd. A in diethyl sebacate (DES); Group 4-1.0% (w/v) Cmpd. A in 9% lauryl lactate+DES; Group 5—1% (w/v) Cmpd. A in 8% ethyl oleate+DES; and Group 6-1% (w/v) Cmpd. A in a vehicle comprising Transcutol®+10% (w/v) ethanol+5% polyvinylpyrrolidone+5% TWEEN 80. Cats were infested with approximately 100 C. felis on Day −1 and treated on Day 0 with the corresponding spot-on formulation by application of the formulation directly on the skin in the midline of the neck, between the base of the skull and the shoulder blades in a single spot using a 1 mL syringe. Twelve hours after treatment, fleas were removed and counted. The cats were immediately re-infested with approximately 100 fleas. Fleas were removed and counted on Day 1 at approximately 24 hours post-treatment. Cats were also infested with fleas on Days 7, 21, […], 35, 42 and 49. Fleas were removed and counted approximately 24 hours after infestation on Days 8, 22, 29, 36, 43 and 50."}, "Ctenocephalides felis [2]": {"tested_on": "Ctenocephalides felis", "experiment": "Spot-on efficacy at 1 mg/kg against Ctenocephalides felis fleas in cats protected from grooming (Example 8)", "assay_type": "in vivo", "conditions": "cats with protective neck collar", "experimental": "In another study, the efficacy of four spot-on formulations comprising Cmpd. A dosed at 1 mg/kg body weight in different carrier vehicles against fleas in cats was studied. Five cats each were allocated to five Treatment Groups: Group 1—Untreated; Group 2—0.833% (w/v) Cmpd. A in dimethylsulfoxide (DMSO); Group 3—0.833% (w/v) Cmpd. A in DMI; Group 4—0.833% (w/v) Cmpd. A in Transcutol®; and Group 5—0.833% (w/v) Cmpd. A in DES. […] the corresponding spot-on formulation by application of the formulation directly on the skin in the midline of the neck, between the base of the skull and the shoulder blades in a single spot using a 1 mL syringe. Infestations with approximately 100 C. felis were conducted weekly on Days 7, 14, 21, 28 and 35. […]"}, "A. americanum": {"tested_on": "A. americanum", "experiment": "Efficacious plasma concentration (EC90) against A. americanum ticks in dogs (Example 13)", "assay_type": "in vivo, Amblyomma americanum", "conditions": "for EC90 (concentration required to achieve 90% efficacy): plasma concentration", "experimental": "Blood samples were collected from all dogs on Days −5, 0 (at 4 h and 12 h), 1, 2, 9, 16, 23, 30, 37 and 44. Plasma samples were analyzed for the concentration of Compound A using a LC/MS/MS method that was GLP validated for the analysis of the compound.\n(§1) Plasma concentrations of Compound A from dogs in the studies of Examples 1 and 4 were determined according to the description in Example 1, and the plasma concentration versus % efficacy against A. americanum and D. variabilis were fit to a Sigmoidal Emax model. […] Since Compound A is systemically active, the lower concentration of the compound in the plasma required to achieve 90% efficacy from the topical compositions of the invention is surprising and unexpected."}, "D. variabilis": {"tested_on": "D. variabilis", "experiment": "Efficacious plasma concentration (EC90) against D. variabilis ticks in dogs (Example 13)", "assay_type": "in vivo, Dermacentor variabilis", "conditions": "for EC90 (concentration required to achieve 90% efficacy): plasma concentration", "experimental": "Blood samples were collected from all dogs in the study on Days −6, 0 (at 4 h and 12 h), 1, 2, 9, 16, 23, 30, 36, 44, 51, 58, 64, 72, 79 and 86. Plasma samples were analyzed for the concentration of Compound A using an LC/MS/MS analytical method that was GLP validated for the purpose.\nas §1"}, "R. sanguineus": {"tested_on": "R. sanguineus", "experiment": "Efficacious plasma concentration (EC90) against R. sanguineus ticks in dogs (Example 13)", "assay_type": "in vivo, Rhipicephalus sanguineus", "conditions": "for EC90 (concentration required to achieve 90% efficacy): plasma concentration"}, "[3]": {"conditions": "dogs, topical compositions, Sigmoidal Emax model"}},
  "data": [
    {"compound": "O=C(CNC(=O)c1ccc(C2=NOC(c3cc(Cl)cc(C(F)(F)F)c3)(C(F)(F)F)C2)c2ccccc12)NCC(F)(F)F", "note": "(stereo not shown) [Compound A, 4-[5-[3-chloro-5-(trifluoromethyl)phenyl]-4,5-dihydro-5-(trifluoromethyl)-3-isoxazolyl]-N-[2-oxo-2-[(2,2,2-trifluoroethyl)amino]ethyl]-1-naphthalanecarboxamide]", "values": [
      {"measurement": "% Reduction", "setting": "Ctenocephalides felis [1]; Day 36", "result": 93.8, "unit": "%"},
      {"measurement": "% Reduction", "setting": "Ctenocephalides felis [1]; Day 43", "result": 93.9, "unit": "%"},
      {"measurement": "% Reduction", "setting": "Ctenocephalides felis [1]; Day 50", "result": 79.6, "unit": "%"},
      {"measurement": "% Reduction", "setting": "Ctenocephalides felis [2]; Group 2: 0.833% in DMSO, Day 1", "result": 43.16, "unit": "%"},
      {"measurement": "% Reduction", "setting": "Ctenocephalides felis [2]; Group 2: 0.833% in DMSO, Day 2", "result": 60.54, "unit": "%"},
      {"measurement": "% Reduction", "setting": "Ctenocephalides felis [2]; Group 2: 0.833% in DMSO, Day 8", "result": 98.48, "unit": "%"},
      {"measurement": "% Reduction", "setting": "Ctenocephalides felis [2]; Group 2: 0.833% in DMSO, Day 15", "result": 95.91, "unit": "%"},
      {"measurement": "% Reduction", "setting": "Ctenocephalides felis [2]; Group 2: 0.833% in DMSO, Day 22", "result": 97.90, "unit": "%"},
      {"measurement": "% Reduction", "setting": "Ctenocephalides felis [2]; Group 2: 0.833% in DMSO, Day 29", "result": 90.10, "unit": "%"},
      {"measurement": "% Reduction", "setting": "Ctenocephalides felis [2]; Group 2: 0.833% in DMSO, Day 36", "result": 74.49, "unit": "%"},
      {"measurement": "% Reduction", "setting": "Ctenocephalides felis [2]; Group 3: 0.833% in DMI, Day 1", "result": 37.90, "unit": "%"},
      {"measurement": "% Reduction", "setting": "Ctenocephalides felis [2]; Group 3: 0.833% in DMI, Day 2", "result": 88.97, "unit": "%"},
      {"measurement": "% Reduction", "setting": "Ctenocephalides felis [2]; Group 3: 0.833% in DMI, Day 8", "result": 99.62, "unit": "%"},
      {"measurement": "% Reduction", "setting": "Ctenocephalides felis [2]; Group 3: 0.833% in DMI, Day 15", "result": 99.32, "unit": "%"},
      {"measurement": "% Reduction", "setting": "Ctenocephalides felis [2]; Group 3: 0.833% in DMI, Day 22", "result": 98.80, "unit": "%"},
      {"measurement": "% Reduction", "setting": "Ctenocephalides felis [2]; Group 3: 0.833% in DMI, Day 29", "result": 92.66, "unit": "%"},
      {"measurement": "% Reduction", "setting": "Ctenocephalides felis [2]; Group 3: 0.833% in DMI, Day 36", "result": 79.54, "unit": "%"},
      {"measurement": "% Reduction", "setting": "Ctenocephalides felis [2]; Group 4: 0.833% in Transcutol, Day 1", "result": 76.32, "unit": "%"},
      {"measurement": "% Reduction", "setting": "Ctenocephalides felis [2]; Group 4: 0.833% in Transcutol, Day 2", "result": 83.12, "unit": "%"},
      {"measurement": "% Reduction", "setting": "Ctenocephalides felis [2]; Group 4: 0.833% in Transcutol, Day 8", "result": 98.95, "unit": "%"},
      {"measurement": "% Reduction", "setting": "Ctenocephalides felis [2]; Group 4: 0.833% in Transcutol, Day 15", "result": 99.01, "unit": "%"},
      {"measurement": "% Reduction", "setting": "Ctenocephalides felis [2]; Group 4: 0.833% in Transcutol, Day 22", "result": 96.19, "unit": "%"},
      {"measurement": "% Reduction", "setting": "Ctenocephalides felis [2]; Group 4: 0.833% in Transcutol, Day 29", "result": 95.41, "unit": "%"},
      {"measurement": "% Reduction", "setting": "Ctenocephalides felis [2]; Group 4: 0.833% in Transcutol, Day 36", "result": 86.61, "unit": "%"},
      {"measurement": "% Reduction", "setting": "Ctenocephalides felis [2]; Group 5: 0.833% in DES, Day 1", "result": 54.40, "unit": "%"},
      {"measurement": "% Reduction", "setting": "Ctenocephalides felis [2]; Group 5: 0.833% in DES, Day 2", "result": 82.77, "unit": "%"},
      {"measurement": "% Reduction", "setting": "Ctenocephalides felis [2]; Group 5: 0.833% in DES, Day 8", "result": 98.82, "unit": "%"},
      {"measurement": "% Reduction", "setting": "Ctenocephalides felis [2]; Group 5: 0.833% in DES, Day 15", "result": 99.26, "unit": "%"},
      {"measurement": "% Reduction", "setting": "Ctenocephalides felis [2]; Group 5: 0.833% in DES, Day 22", "result": 99.82, "unit": "%"},
      {"measurement": "% Reduction", "setting": "Ctenocephalides felis [2]; Group 5: 0.833% in DES, Day 29", "result": 92.43, "unit": "%"},
      {"measurement": "% Reduction", "setting": "Ctenocephalides felis [2]; Group 5: 0.833% in DES, Day 36", "result": 88.11, "unit": "%"},
      {"measurement": "concentration required to achieve 90% efficacy, lower than the concentration required from oral administration", "setting": "A. americanum; dogs, topical vs oral", "result": "about 42%"},
      {"measurement": "EC90 (concentration required to achieve 90% efficacy)", "setting": "A. americanum; [3]", "result": 0.092, "unit": "µg/mL"},
      {"measurement": "EC90 (concentration required to achieve 90% efficacy)", "setting": "A. americanum; oral dosage form", "result": 0.158, "unit": "µg/mL"},
      {"measurement": "concentration required to achieve 90% efficacy, lower than the concentration required from oral administration", "setting": "D. variabilis; dogs, topical vs oral", "result": "~36", "unit": "%"},
      {"measurement": "EC90 (concentration required to achieve 90% efficacy)", "setting": "D. variabilis; [3]", "result": 0.07, "unit": "µg/mL"},
      {"measurement": "EC90 (concentration required to achieve 90% efficacy)", "setting": "D. variabilis; oral dosage form", "result": 0.11, "unit": "µg/mL"},
      {"measurement": "concentration required to achieve 90% efficacy, lower than the concentration required from oral administration", "setting": "R. sanguineus; dogs, topical vs oral", "result": "~32", "unit": "%"},
      {"measurement": "EC90 (concentration required to achieve 90% efficacy)", "setting": "R. sanguineus; oral dosage form", "result": 0.101, "unit": "µg/mL"},
      {"measurement": "EC90 (concentration required to achieve 90% efficacy)", "setting": "R. sanguineus; topical, separate study", "result": 0.069, "unit": "µg/mL"}
    ]}
  ]
}
